Measured values: ChEMBL document CHEMBL3352506, “Betulin derivatives impair Leishmania braziliensis viability and host-parasite interaction” (Bioorg Med Chem, 2014)
Active and inactive are the calls of the source. The rule behind the calls is not given here.

Key:
Leishmania braziliensis [1] = assay: Antiparasitic activity against Leishmania braziliensis assessed as inhibition of infection with mouse J774.A1 cells measured as >10 parasites per cell at 1 uM after 4 hrs; assay type: functional; set-up: scale not given: the % may be the effect or the level left
Leishmania braziliensis [2] = assay: Antiparasitic activity against Leishmania braziliensis assessed as inhibition of infection with mouse J774.A1 cells measured as <5 parasites per cell at 1 uM after 4 hrs; assay type: functional; set-up: scale not given: the % may be the effect or the level left
Leishmania braziliensis [3] = assay: Antiparasitic activity against Leishmania braziliensis assessed as inhibition of infection with mouse J774.A1 cells measured infected cells at 1 uM after 4 hrs; assay type: functional; set-up: scale not given: the % may be the effect or the level left
Leishmania braziliensis [4] = assay: Antiparasitic activity against Leishmania braziliensis assessed as inhibition of infection with mouse J774.A1 cells measured as 5 to 10 parasites per cell at 1 uM after 4 hrs; assay type: functional; set-up: scale not given: the % may be the effect or the level left
Leishmania braziliensis [5] = assay: Antiparasitic activity against Leishmania braziliensis assessed as inhibition of infection with mouse J774.A1 cells measured attached parasites at 1 uM after 4 hrs; assay type: functional; set-up: scale not given: the % may be the effect or the level left
Leishmania braziliensis [6] = assay: Leishmanicidal activity against Leishmania braziliensis assessed as reduction in parasite migration at 10^-6 M after 30 mins by chemotactic assay; assay type: functional, organism-based
Leishmania braziliensis [7] = assay: Antiparasitic activity against Leishmania braziliensis assessed as inhibition of growth after 72 hrs; assay type: functional, organism-based
J774.A1 = assay: Cytotoxicity against mouse J774.A1 cells; assay type: cell-based
Leishmania braziliensis [8] = assay: Antiparasitic activity against Leishmania braziliensis assessed as inhibition of growth after 72 hrs at 10 uM; assay type: functional
[9] = Selectivity index, ratio of IC50 for mouse J774.A1 cells to IC50 for Leishmania braziliensis; assay type: toxicity, cell-based; settings: J774.A1 cells versus Leishmania braziliensis, read-out: Ratio IC50
Leishmania braziliensis [10] = assay: Leishmanicidal activity against Leishmania braziliensis assessed as dead cells at 10^-6 M after 30 mins by chemotactic assay; assay type: functional; settings: 0.5 h
Leishmania braziliensis [11] = assay: Leishmanicidal activity against Leishmania braziliensis assessed as dead cells at 10^-12 to 10^-7 M after 30 mins by chemotactic assay; assay type: functional, organism-based
Leishmania braziliensis [12] = assay: Antiparasitic activity against Leishmania braziliensis assessed as inhibition of infection with mouse J774.A1 cells measured as >10 parasites per cell at 1 x 10^-9 M after 4 hrs; assay type: functional; set-up: scale not given: the % may be the effect or the level left
Leishmania braziliensis [13] = assay: Antiparasitic activity against Leishmania braziliensis assessed as inhibition of infection with mouse J774.A1 cells measured attached parasites at 1 x 10^-8 M after 4 hrs; assay type: functional; set-up: scale not given: the % may be the effect or the level left
Leishmania braziliensis [14] = assay: Antiparasitic activity against Leishmania braziliensis assessed as inhibition of infection with mouse J774.A1 cells measured as >10 parasites per cell at 1 x 10^-8 M after 4 hrs; assay type: functional; set-up: scale not given: the % may be the effect or the level left
Leishmania braziliensis [15] = assay: Antiparasitic activity against Leishmania braziliensis assessed as inhibition of infection with mouse J774.A1 cells measured as >10 parasites per cell at 1 x 10^-7 M after 4 hrs; assay type: functional; set-up: scale not given: the % may be the effect or the level left
Leishmania braziliensis [16] = assay: Antiparasitic activity against Leishmania braziliensis assessed as inhibition of infection with mouse J774.A1 cells measured infected cells […] at 1 x 10^-8 M after 4 hrs; assay type: functional; set-up: scale not given: the % may be the effect or the level left
Leishmania braziliensis [17] = assay: Antiparasitic activity against Leishmania braziliensis assessed as inhibition of infection with mouse J774.A1 cells measured as 5 to 10 parasites per cell at 1 x 10^-7 M after 4 hrs; assay type: functional; set-up: scale not given: the % may be the effect or the level left
Leishmania braziliensis [18] = assay: Antiparasitic activity against Leishmania braziliensis assessed as inhibition of infection with mouse J774.A1 cells measured attached parasites at 1 x 10^-9 M after 4 hrs; assay type: functional; set-up: scale not given: the % may be the effect or the level left
Leishmania braziliensis [19] = assay: Antiparasitic activity against Leishmania braziliensis assessed as inhibition of infection with mouse J774.A1 cells measured attached parasites at 1 x 10^-7 M after 4 hrs; assay type: functional; set-up: scale not given: the % may be the effect or the level left
Leishmania braziliensis [20] = assay: Antiparasitic activity against Leishmania braziliensis assessed as inhibition of infection with mouse J774.A1 cells measured as <5 parasites per cell at 1 x 10^-7 M after 4 hrs; assay type: functional; set-up: scale not given: the % may be the effect or the level left
Leishmania braziliensis [21] = assay: Antiparasitic activity against Leishmania braziliensis assessed as inhibition of infection with mouse J774.A1 cells measured as 5 to 10 parasites per cell at 1 x 10^-9 M after 4 hrs; assay type: functional; set-up: scale not given: the % may be the effect or the level left
Leishmania braziliensis [22] = assay: Antiparasitic activity against Leishmania braziliensis assessed as inhibition of infection with mouse J774.A1 cells measured as <5 parasites per cell at 1 x 10^-9 M after 4 hrs; assay type: functional; set-up: scale not given: the % may be the effect or the level left
Leishmania braziliensis [23] = assay: Antiparasitic activity against Leishmania braziliensis assessed as inhibition of infection with mouse J774.A1 cells measured infected cells […] at 1 x 10^-7 M after 4 hrs; assay type: functional; set-up: scale not given: the % may be the effect or the level left
Leishmania braziliensis [24] = assay: Antiparasitic activity against Leishmania braziliensis assessed as inhibition of infection with mouse J774.A1 cells measured as <5 parasites per cell at 1 x 10^-8 M after 4 hrs; assay type: functional; set-up: scale not given: the % may be the effect or the level left
Leishmania braziliensis [25] = assay: Antiparasitic activity against Leishmania braziliensis assessed as inhibition of infection with mouse J774.A1 cells measured infected cells […] at 1 x 10^-9 M after 4 hrs; assay type: functional; set-up: scale not given: the % may be the effect or the level left
Leishmania braziliensis [26] = assay: Antiparasitic activity against Leishmania braziliensis assessed as inhibition of infection with mouse J774.A1 cells measured as 5 to 10 parasites per cell at 1 x 10^-8 M after 4 hrs; assay type: functional; set-up: scale not given: the % may be the effect or the level left

C[C@@H]1[C@H](O)[C@@H](C)/C=C/C=C/C=C/C=C/C=C/C=C/C=C/[C@H](O[C@@H]2O[C@H](C)[C@@H](O)[C@H](N)[C@@H]2O)C[C@@H]2O[C@](O)(C[C@@H](O)C[C@@H](O)[C@H](O)CC[C@@H](O)C[C@@H](O)CC(=O)O[C@H]1C)C[C@H](O)[C@H]2C(=O)O [AMPHOTERICIN B]
Activity (Leishmania braziliensis [1]): 7.15%
Activity (Leishmania braziliensis [2]): 71.51%
Activity (Leishmania braziliensis [3]): 15.2%
Activity (Leishmania braziliensis [4]): 21.45%
Activity (Leishmania braziliensis [5]): 41.3%

C=C(C)[C@@H]1CC[C@]2(/C=N/O)CC[C@]3(C)[C@H](CC[C@@H]4[C@@]5(C)CC[C@H](O)C(C)(C)[C@@H]5CC[C@]43C)[C@@H]12
Activity (Leishmania braziliensis [6]): Active
IC50 (Leishmania braziliensis [7]): 4.12 µM
IC50 (J774.A1): > 10 µM
inhibition at 10 µM (Leishmania braziliensis [8]): 50%
selectivity ratio [9]: > 2.5
inhibition at 1 µM (Leishmania braziliensis [10]): 66%

C=C(C)[C@@H]1CC[C@]2(/C=N/O)CC[C@]3(C)[C@H](CC[C@@H]4[C@@]5(C)CC/C(=N\O)C(C)(C)[C@@H]5CC[C@]43C)[C@@H]12 [BETULIN-3,28-DIOXIME]
Activity (Leishmania braziliensis [11]): Dose-dependent effect
IC50 (Leishmania braziliensis [7]): 3.35 µM
IC50 (J774.A1): > 10 µM
inhibition at 10 µM (Leishmania braziliensis [8]): 50%
selectivity ratio [9]: > 3
inhibition at 1 µM (Leishmania braziliensis [10]): 25%

CC(C)[C@@]12CC[C@]3(COC=O)CC[C@]4(C)C(=C31)C(C[C@@H]1[C@@]3(C)CC[C@H](OC=O)C(C)(C)[C@@H]3CC[C@]14C)n1c(=O)n(C)c(=O)n12 (some centres undefined)
Activity (Leishmania braziliensis [11]): Dose-dependent effect
Activity (Leishmania braziliensis [12]): 6.34%
Activity (Leishmania braziliensis [13]): 46.6%
Activity (Leishmania braziliensis [14]): 4.78%
Activity (Leishmania braziliensis [15]): 3.86%
Activity (Leishmania braziliensis [16]): 13.4%
Activity (Leishmania braziliensis [17]): 25.15%
IC50 (Leishmania braziliensis [7]): 0.25 µM
Activity (Leishmania braziliensis [18]): 55%
Activity (Leishmania braziliensis [19]): 59%
IC50 (J774.A1): > 10 µM
Activity (Leishmania braziliensis [20]): 61.91%
Activity (Leishmania braziliensis [21]): 15.86%
Activity (Leishmania braziliensis [22]): 76.14%
Activity (Leishmania braziliensis [23]): 17.7%
selectivity ratio [9]: > 40
inhibition at 1 µM (Leishmania braziliensis [10]): 25%
Activity (Leishmania braziliensis [24]): 59.79%
Activity (Leishmania braziliensis [25]): 10.3%
Activity (Leishmania braziliensis [26]): 31.09%

CC(=O)OC[C@]12CC[C@]3(C(C)C)C1=C1C(C[C@@H]4[C@@]5(C)CC[C@H](OC(C)=O)C(C)(C)[C@@H]5CC[C@@]4(C)[C@]1(C)CC2)n1c(=O)n(C)c(=O)n13 (some centres undefined)
inhibition at 10 µM (Leishmania braziliensis [8]): 50%

C=C(C)[C@@H]1CC[C@]2(C(=O)O)CC[C@]3(C)[C@H](CC[C@@H]4[C@@]5(C)CCC(=O)C(C)(C)[C@@H]5CC[C@]43C)[C@@H]12 [BETUNOLIC ACID]
inhibition at 10 µM (Leishmania braziliensis [8]): 50%

CC(C)[C@@]12CC[C@]3(C=O)CC[C@]4(C)C(=C31)C(C[C@@H]1[C@@]3(C)CC[C@H](O)C(C)(C)[C@@H]3CC[C@]14C)n1c(=O)n(C)c(=O)n12 (some centres undefined)
Activity (Leishmania braziliensis [6]): Active
Activity (Leishmania braziliensis [12]): 6.83%
Activity (Leishmania braziliensis [13]): 56.7%
Activity (Leishmania braziliensis [14]): 7.29%
Activity (Leishmania braziliensis [15]): 5.09%
Activity (Leishmania braziliensis [16]): 13.7%
Activity (Leishmania braziliensis [17]): 5.09%
IC50 (Leishmania braziliensis [7]): 2.06 µM
Activity (Leishmania braziliensis [18]): 50%
Activity (Leishmania braziliensis [19]): 62.3%
IC50 (J774.A1): > 10 µM
Activity (Leishmania braziliensis [20]): 84.09%
Activity (Leishmania braziliensis [21]): 15.93%
Activity (Leishmania braziliensis [22]): 77.41%
Activity (Leishmania braziliensis [23]): 12.7%
selectivity ratio [9]: > 5
inhibition at 1 µM (Leishmania braziliensis [10]): 25%
Activity (Leishmania braziliensis [24]): 90.02%
Activity (Leishmania braziliensis [25]): 14.4%
Activity (Leishmania braziliensis [26]): 9.73%
